The values below are quoted from earlier work in US5591773A, “Inhibition of cataract formation, diseases resulting from oxidative stress, and HIV replication by caffeic acid esters” (priority 1994, dated 1997).

Data set [1] deals with tumor promotion. To be noted: cited from earlier work.
The test system of data set [2] is HeLa cells. Particulars: cited from earlier work.
Data set [3] relates to bovine lens (opacity). Particulars: cited from earlier work.
Data set [4] relates to bovine lens (H2O2). To be noted: cited from earlier work.
For data set [5], the system named is mammalian cells. To be noted: cited from earlier work.
For data set [6], the system named is TPA-induced oxidative processes (PMN infiltration, reactive oxygen species generation, DNA base oxidation). Particulars: sarcophytol A 6.5 nmol, TPA 6.5 nmol/treatment; cited from earlier work.

Take `O=C(O[C@@H]1Cc2c(O)cc(O)cc2O[C@@H]1c1cc(O)c(O)c(O)c1)c1cc(O)c(O)c(O)c1` [EGCG, (-)-epigallocatechin gallate]: the “anti-tumor promoting properties (in words)” value in data set [1] is “known anti-tumor promoters”. Moreover, the “inhibition of TPA-induced oxidative processes (in words)” value in data set [2] (EGCG 50 nmol) is given as “less effective inhibition of TPA-induced oxidative processes”. Moreover, the “HMdUrd and 8-OHdGua levels (in words)” value in data set [2] (EGCG 5-25 nmol preincubation, TPA) was “contained lower levels of HMdUrd and 8-OHdGua than cells treated only with TPA”. Besides, the “inhibition of TPA-mediated lens opacification (in words)” value in data set [3] is listed as “effective inhibitors”. Further, the “inhibition of TPA-mediated H2O2 production, lens (in words)” value in data set [4] is reported as “effective inhibitors”.

Regarding `O=C(O)/C=C/c1ccc(O)c(O)c1` [caffeic acid], the “anti-tumor promoting properties (in words)” value in data set [1] is “known anti-tumor promoters”.

`O=c1[nH]c(=O)n([C@H]2C[C@H](O)[C@@H](CO)O2)cc1CO` [HMdUrd, 5-hydroxymethyl-2'-deoxyuridine]: the “cytotoxicity and mutagenicity (in words)” value in data set [5] was “cytotoxic and cytostatic to a number of mammalian cells and is mutagenic”.

`COc1cc(/C=C/C(=O)CC(=O)/C=C/c2ccc(O)c(OC)c2)ccc1O` [curcumin]: in data set [1], the “anti-tumor promoting properties (in words)” value is on record as “known anti-tumor promoters”.

For the compound `C/C1=C\C=C(\C(C)C)[C@@H](O)C/C(C)=C/CC/C(C)=C/CC1` [sarcophytol A], in data set [1], the “anti-tumor promoting properties (in words)” value is given as “known anti-tumor promoters”. Moreover, in data set [6], the “inhibition of TPA-induced oxidative processes (in words)” value was “potent inhibitor”. For the same compound, the “inhibition of TPA-mediated lens opacification (in words)” value in data set [3] was “effective inhibitors”. In addition, the “inhibition of TPA-mediated H2O2 production, lens (in words)” value in data set [4] is “effective inhibitors”.
